System: 885512-296-R-J2-PDC complex spheroid growth, % test/control
Assay: Anticancer human tumor 885512-296-R-J2-PDC patient-derived breast carcinoma cell line growth inhibition [AhR]
Settings: for IC50: curve of first compound; for viability, T/C: stronger effect = lower value
Method in brief: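 Agents were dosed in half-log steps down from roughly clinical Cmax, or from 10 microM where Cmax was unknown, alone and with AhR antagonists. Read-out: percent test/control growth of tumor spheroids containing HUVEC and MSC stromal cells.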

[1] = second compound 0.1 µM, first compound 0.0316 µM
[2] = second compound 0.1 µM, first compound 0.1 µM
[3] = second compound 0.1 µM, first compound 0.316 µM
[4] = second compound 0.1 µM, first compound 1 µM
[5] = second compound 0.1 µM, first compound 3.16 µM
[6] = second compound 0.1 µM, first compound 10 µM
[7] = second compound 0.316 µM, first compound 0.0316 µM
[8] = second compound 0.316 µM, first compound 0.1 µM
[9] = second compound 0.316 µM, first compound 0.316 µM
[10] = second compound 0.316 µM, first compound 1 µM
[11] = second compound 0.316 µM, first compound 3.16 µM
[12] = second compound 0.316 µM, first compound 10 µM
[13] = second compound 1 µM, first compound 0.0316 µM
[14] = second compound 1 µM, first compound 0.1 µM
[15] = second compound 1 µM, first compound 0.316 µM
[16] = second compound 1 µM, first compound 1 µM
[17] = second compound 1 µM, first compound 3.16 µM
[18] = second compound 1 µM, first compound 10 µM
[19] = second compound 3.16 µM, first compound 0.0316 µM
[20] = second compound 3.16 µM, first compound 0.1 µM
[21] = second compound 3.16 µM, first compound 0.316 µM
[22] = second compound 3.16 µM, first compound 1 µM
[23] = second compound 3.16 µM, first compound 3.16 µM
[24] = second compound 3.16 µM, first compound 10 µM
[25] = second compound 10 µM, first compound 0.0316 µM
[26] = second compound 10 µM, first compound 0.1 µM
[27] = second compound 10 µM, first compound 0.316 µM
[28] = second compound 10 µM, first compound 1 µM
[29] = second compound 10 µM, first compound 3.16 µM
[30] = second compound 10 µM, first compound 10 µM
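Note: spheroids exposed to compounds for seven days.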

Question: CCc1c2c(nc3ccc(O)cc13)-c1cc3c(c(=O)n1C2)COC(=O)[C@]3(O)CC + Cc1ccccc1N=Nc1ccc(NC(=O)c2ccnn2C)c(C)c1 was tested. Which IC50 (second compound 0.1 µM) did it give?
Answer: < 0.949 nM

Question: And the IC50 (second compound 0.316 µM)?
Answer: < 0.949 nM

Question: What about the IC50 (second compound 1 µM) of the same compound?
Answer: < 0.949 nM

Question: What about the IC50 (second compound 3.16 µM) of the same compound?
Answer: < 0.949 nM

Question: And the IC50 (second compound 10 µM)?
Answer: < 0.949 nM

Question: What about the viability, T/C (second compound 0.1 µM, first compound 0.000949 µM) of the same compound?
Answer: 15.3%

Question: What about the viability, T/C (second compound 0.1 µM, first compound 0.003 µM) of the same compound?
Answer: 7.41%

Question: And the viability, T/C (second compound 0.1 µM, first compound 0.00949 µM)?
Answer: 6.43%

Question: What about the viability, T/C (second compound 0.1 µM, first compound 0.03 µM) of the same compound?
Answer: 4.14%

Question: And the viability, T/C (second compound 0.1 µM, first compound 0.0949 µM)?
Answer: 1.83%

Question: What about the viability, T/C (second compound 0.1 µM, first compound 0.3 µM) of the same compound?
Answer: 1.03%

Question: What about the viability, T/C (second compound 0.316 µM, first compound 0.000949 µM) of the same compound?
Answer: 17.7%

Question: And the viability, T/C (second compound 0.316 µM, first compound 0.003 µM)?
Answer: 7.53%

Question: And the viability, T/C (second compound 0.316 µM, first compound 0.00949 µM)?
Answer: 5.71%

Question: What about the viability, T/C (second compound 0.316 µM, first compound 0.03 µM) of the same compound?
Answer: 3.77%

Question: And the viability, T/C (second compound 0.316 µM, first compound 0.0949 µM)?
Answer: 1.78%

Question: And the viability, T/C (second compound 0.316 µM, first compound 0.3 µM)?
Answer: 1.57%

Question: What about the viability, T/C (second compound 1 µM, first compound 0.000949 µM) of the same compound?
Answer: 16.8%

Question: What about the viability, T/C (second compound 1 µM, first compound 0.003 µM) of the same compound?
Answer: 6.58%

Question: And the viability, T/C (second compound 1 µM, first compound 0.00949 µM)?
Answer: 5.11%

Question: What about the viability, T/C (second compound 1 µM, first compound 0.03 µM) of the same compound?
Answer: 4.84%

Question: And the viability, T/C (second compound 1 µM, first compound 0.0949 µM)?
Answer: 2.6%

Question: What about the viability, T/C (second compound 1 µM, first compound 0.3 µM) of the same compound?
Answer: 1.23%

Question: And the viability, T/C (second compound 3.16 µM, first compound 0.000949 µM)?
Answer: 17.2%

Question: What about the viability, T/C (second compound 3.16 µM, first compound 0.003 µM) of the same compound?
Answer: 6.69%

Question: And the viability, T/C (second compound 3.16 µM, first compound 0.00949 µM)?
Answer: 5.43%

Question: And the viability, T/C (second compound 3.16 µM, first compound 0.03 µM)?
Answer: 4.44%

Question: What about the viability, T/C (second compound 3.16 µM, first compound 0.0949 µM) of the same compound?
Answer: 2.64%

Question: And the viability, T/C (second compound 3.16 µM, first compound 0.3 µM)?
Answer: 1.47%

Question: And the viability, T/C (second compound 10 µM, first compound 0.000949 µM)?
Answer: 14.9%

Question: And the viability, T/C (second compound 10 µM, first compound 0.003 µM)?
Answer: 7.42%

Question: What about the viability, T/C (second compound 10 µM, first compound 0.00949 µM) of the same compound?
Answer: 5.87%

Question: And the viability, T/C (second compound 10 µM, first compound 0.03 µM)?
Answer: 3.54%

Question: And the viability, T/C (second compound 10 µM, first compound 0.0949 µM)?
Answer: 2.17%

Question: And the viability, T/C (second compound 10 µM, first compound 0.3 µM)?
Answer: 1.29%

Question: With Nc1ccccc1NC(=O)c1ccc(CNC(=O)OCc2cccnc2)cc1 + Cc1ccccc1N=Nc1ccc(NC(=O)c2ccnn2C)c(C)c1 as the compound, how does the IC50 (second compound 0.1 µM) read?
Answer: 763 nM

Question: And the IC50 (second compound 0.316 µM)?
Answer: 764 nM

Question: And the IC50 (second compound 1 µM)?
Answer: 958 nM

Question: And the IC50 (second compound 3.16 µM)?
Answer: 713 nM

Question: And the IC50 (second compound 10 µM)?
Answer: < 31.6 nM

Question: And the viability, T/C [1]?
Answer: 95.5%

Question: And the viability, T/C [2]?
Answer: 89.5%

Question: And the viability, T/C [3]?
Answer: 64.3%

Question: And the viability, T/C [4]?
Answer: 43.7%

Question: What about the viability, T/C [5] of the same compound?
Answer: 28.3%

Question: And the viability, T/C [6]?
Answer: 11.1%

Question: What about the viability, T/C [7] of the same compound?
Answer: 92%

Question: What about the viability, T/C [8] of the same compound?
Answer: 77.7%

Question: What about the viability, T/C [9] of the same compound?
Answer: 68.8%

Question: What about the viability, T/C [10] of the same compound?
Answer: 43.1%

Question: And the viability, T/C [11]?
Answer: 26.5%

Question: What about the viability, T/C [12] of the same compound?
Answer: 10.7%

Question: What about the viability, T/C [13] of the same compound?
Answer: 97.7%

Question: What about the viability, T/C [14] of the same compound?
Answer: 91.5%

Question: What about the viability, T/C [15] of the same compound?
Answer: 69.5%

Question: And the viability, T/C [16]?
Answer: 48.7%

Question: And the viability, T/C [17]?
Answer: 29.2%

Question: And the viability, T/C [18]?
Answer: 11.2%

Question: And the viability, T/C [19]?
Answer: 75.2%

Question: What about the viability, T/C [20] of the same compound?
Answer: 69.7%

Question: And the viability, T/C [21]?
Answer: 62.3%

Question: What about the viability, T/C [22] of the same compound?
Answer: 44.3%

Question: And the viability, T/C [23]?
Answer: 27.7%

Question: What about the viability, T/C [24] of the same compound?
Answer: 12.4%

Question: And the viability, T/C [25]?
Answer: 49.4%

Question: What about the viability, T/C [26] of the same compound?
Answer: 45.1%

Question: What about the viability, T/C [27] of the same compound?
Answer: 44.5%

Question: And the viability, T/C [28]?
Answer: 32.5%

Question: And the viability, T/C [29]?
Answer: 23.5%

Question: What about the viability, T/C [30] of the same compound?
Answer: 12.8%

Question: Which results are given for Nc1ccn(C2OC(CO)C(O)C2(F)F)c(=O)n1 (stereo not given) + Cc1ccccc1N=Nc1ccc(NC(=O)c2ccnn2C)c(C)c1?
Answer: IC50 (second compound 0.1 µM): < 31.6 nM; IC50 (second compound 0.316 µM): < 31.6 nM; IC50 (second compound 1 µM): < 31.6 nM; IC50 (second compound 3.16 µM): < 31.6 nM; IC50 (second compound 10 µM): < 31.6 nM; viability, T/C [1]: 3.22%; viability, T/C [2]: 3.21%; viability, T/C [3]: 3.37%; viability, T/C [4]: 3.91%; viability, T/C [5]: 5.19%; viability, T/C [6]: 4.82%; viability, T/C [7]: 3.01%; viability, T/C [8]: 3.13%; viability, T/C [9]: 3.98%; viability, T/C [10]: 4.91%; viability, T/C [11]: 7.26%; viability, T/C [12]: 4.9%; viability, T/C [13]: 3.39%; viability, T/C [14]: 3.19%; viability, T/C [15]: 5.43%; viability, T/C [16]: 5.88%; viability, T/C [17]: 5.6%; viability, T/C [18]: 6.93%; viability, T/C [19]: 3.31%; viability, T/C [20]: 3.09%; viability, T/C [21]: 5.1%; viability, T/C [22]: 5.57%; viability, T/C [23]: 4.88%; viability, T/C [24]: 5.93%; viability, T/C [25]: 3.17%; viability, T/C [26]: 3.46%; viability, T/C [27]: 4.17%; viability, T/C [28]: 4.62%; viability, T/C [29]: 5.33%; viability, T/C [30]: 5.12%

Question: For O=C(c1cc(Cc2n[nH]c(=O)c3ccccc23)ccc1F)N1CCN(C(=O)C2CC2)CC1 + Cc1ccccc1N=Nc1ccc(NC(=O)c2ccnn2C)c(C)c1, which IC50 (second compound 0.1 µM) is on record?
Answer: 5920 nM

Question: What about the IC50 (second compound 0.316 µM) of the same compound?
Answer: 5820 nM

Question: What about the IC50 (second compound 1 µM) of the same compound?
Answer: 5520 nM

Question: What about the IC50 (second compound 3.16 µM) of the same compound?
Answer: 4790 nM

Question: And the IC50 (second compound 10 µM)?
Answer: 3440 nM

Question: What about the viability, T/C [1] of the same compound?
Answer: 118%

Question: What about the viability, T/C [2] of the same compound?
Answer: 135%

Question: What about the viability, T/C [3] of the same compound?
Answer: 147%

Question: What about the viability, T/C [4] of the same compound?
Answer: 117%

Question: What about the viability, T/C [5] of the same compound?
Answer: 83.7%

Question: And the viability, T/C [6]?
Answer: 22.6%

Question: What about the viability, T/C [7] of the same compound?
Answer: 138%

Question: What about the viability, T/C [8] of the same compound?
Answer: 145%

Question: What about the viability, T/C [9] of the same compound?
Answer: 138%

Question: What about the viability, T/C [10] of the same compound?
Answer: 130%

Question: What about the viability, T/C [11] of the same compound?
Answer: 80%

Question: And the viability, T/C [12]?
Answer: 23.4%

Question: What about the viability, T/C [13] of the same compound?
Answer: 121%

Question: What about the viability, T/C [14] of the same compound?
Answer: 133%

Question: What about the viability, T/C [15] of the same compound?
Answer: 132%

Question: And the viability, T/C [16]?
Answer: 109%

Question: What about the viability, T/C [17] of the same compound?
Answer: 80.4%

Question: And the viability, T/C [18]?
Answer: 18.7%

Question: And the viability, T/C [19]?
Answer: 110%

Question: And the viability, T/C [20]?
Answer: 103%

Question: What about the viability, T/C [21] of the same compound?
Answer: 111%

Question: And the viability, T/C [22]?
Answer: 101%

Question: What about the viability, T/C [23] of the same compound?
Answer: 66.6%

Question: And the viability, T/C [24]?
Answer: 20.8%

Question: What about the viability, T/C [25] of the same compound?
Answer: 67.1%

Question: And the viability, T/C [26]?
Answer: 59.5%

Question: What about the viability, T/C [27] of the same compound?
Answer: 66.4%

Question: What about the viability, T/C [28] of the same compound?
Answer: 70.8%

Question: What about the viability, T/C [29] of the same compound?
Answer: 52.6%

Question: What about the viability, T/C [30] of the same compound?
Answer: 17.5%

— PubChem BioAssay AID1919006 (Molecular Pharmacology Branch, DTP, NCI, 2023)
